The values below come from ChEMBL document CHEMBL1134790, “Design, synthesis, and evaluation of novel A2A adenosine receptor agonists” (J Med Chem, 2001).

What is called Ki is a dissociation constant, usually derived from enzyme kinetics or from competition with a known ligand. A low value points to a stronger hold on the target.

One experiment deals with T1, Adenosine receptor A1 (Rattus norvegicus, UniProt P25099).
T1 sequence (P25099 whole entry): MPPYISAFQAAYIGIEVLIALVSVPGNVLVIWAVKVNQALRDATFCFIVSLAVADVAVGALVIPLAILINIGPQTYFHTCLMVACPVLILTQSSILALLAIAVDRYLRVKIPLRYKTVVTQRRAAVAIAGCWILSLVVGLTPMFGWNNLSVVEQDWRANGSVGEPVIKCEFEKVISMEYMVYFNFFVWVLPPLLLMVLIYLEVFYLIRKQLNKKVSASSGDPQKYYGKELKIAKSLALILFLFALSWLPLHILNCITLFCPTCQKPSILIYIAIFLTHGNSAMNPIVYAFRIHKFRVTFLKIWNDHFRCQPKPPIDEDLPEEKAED
In words: biochemical.

In another experiment the target is Adenosine receptor A2a (Rattus norvegicus, UniProt P30543). Put plainly: biochemical.
Adenosine receptor A2a, sequence (P30543 whole entry): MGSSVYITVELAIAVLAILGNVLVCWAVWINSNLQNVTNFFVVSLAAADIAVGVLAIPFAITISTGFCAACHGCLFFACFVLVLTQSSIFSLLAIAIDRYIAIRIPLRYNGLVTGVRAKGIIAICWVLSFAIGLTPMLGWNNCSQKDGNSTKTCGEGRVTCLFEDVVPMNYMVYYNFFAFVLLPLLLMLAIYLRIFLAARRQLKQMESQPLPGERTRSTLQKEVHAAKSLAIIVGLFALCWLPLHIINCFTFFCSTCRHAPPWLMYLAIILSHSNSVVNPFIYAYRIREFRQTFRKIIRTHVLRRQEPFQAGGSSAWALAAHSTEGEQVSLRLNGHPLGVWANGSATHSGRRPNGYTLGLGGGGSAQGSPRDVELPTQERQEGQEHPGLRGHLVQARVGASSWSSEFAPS

Description for Adenosine receptor A1: Binding affinity towards adenosine A1 receptor in rat brain cortex
Description for Adenosine receptor A2a: Binding affinity towards adenosine A2A receptor in rat brain striatum

With `Nc1nc(OC2CCCC2)nc2c1ncn2[C@@H]1O[C@H](CO)[C@@H](O)[C@H]1O`, the Ki amounted to 14000 nM at Adenosine receptor A1 and 1000 nM on Adenosine receptor A2a.

For the compound `CCOc1nc(N)c2ncn([C@@H]3O[C@H](CO)[C@@H](O)[C@H]3O)c2n1`, the Ki stood at 1300 nM at Adenosine receptor A1 and 1500 nM at Adenosine receptor A2a.

`CC(C)(C)OC(=O)C1CCCN1C[C@@H](O)[C@H](Cc1ccccc1)NC(=O)[C@H](CC(N)=O)NC(=O)OCc1ccccc1` (some centres undefined): the inhibitory constant (Ki) was found to be 130 nM on Adenosine receptor A1 and 2.2 nM on Adenosine receptor A2a.

With `C[C@@H](CCOc1nc(N)c2ncn(C3O[C@H](CO)[C@H](O)[C@@H]3O)c2n1)c1ccccc1` (some centres undefined), the figures for the Ki on Adenosine receptor A1 and at Adenosine receptor A2a were 1600 nM and 1700 nM, respectively.

`Nc1nc(OCCCc2ccccc2)nc2c1ncn2[C@@H]1O[C@H](CO)[C@@H](O)[C@H]1O`: the Ki is 3600 nM at Adenosine receptor A1 and 1200 nM on Adenosine receptor A2a.

As to `Nc1nc(OCCCCc2ccccc2)nc2c1ncn2[C@@H]1O[C@H](CO)[C@@H](O)[C@H]1O`, the figures for the Ki at Adenosine receptor A1 and at Adenosine receptor A2a were 2400 nM and 170 nM, respectively.

Regarding `Nc1nc(OCCC2CCCCC2)nc2c1ncn2[C@@H]1O[C@H](CO)[C@@H](O)[C@H]1O`, the Ki on Adenosine receptor A1 is 1600 nM; on Adenosine receptor A2a, 22 nM.

In the case of `CCc1nc(N)c2ncn(C3O[C@H](CO)[C@@H](O)[C@H]3O)c2n1` (some centres undefined), the Ki was 186 nM on Adenosine receptor A1 and 21.2 nM at Adenosine receptor A2a.

For `COc1ccccc1CCOc1nc(N)c2ncn(C3O[C@H](CO)[C@@H](O)[C@H]3O)c2n1` (some centres undefined), the Ki is 190 nM at Adenosine receptor A1 and 36 nM at Adenosine receptor A2a.

In the case of `Nc1nc(OCC2CCCCC2)nc2c1ncn2C1O[C@H](CO)[C@@H](O)[C@H]1O` (some centres undefined), the Ki on Adenosine receptor A1 is 3000 nM; at Adenosine receptor A2a, 3200 nM.

Take `COc1ccc(CCOc2nc(N)c3ncn(C4O[C@H](CO)[C@@H](O)[C@H]4O)c3n2)cc1OC` (some centres undefined): the Ki was found to be 380 nM at Adenosine receptor A1 and 40 nM on Adenosine receptor A2a.

Turning to `CCNC(=O)[C@H]1OC(n2cnc3c(N)nc(C#CNCc4ccccc4)nc32)[C@H](O)[C@@H]1O` (some centres undefined), the values for the Ki on Adenosine receptor A1 and at Adenosine receptor A2a were 8600 nM and 1130 nM, respectively.

On to `COc1cc(CCOc2nc(N)c3ncn(C4O[C@H](CO)[C@@H](O)[C@H]4O)c3n2)cc(OC)c1OC` (some centres undefined), for which the results for the Ki on Adenosine receptor A1 and on Adenosine receptor A2a were 5000 nM and 330 nM, respectively.

For `Nc1nc(CCO)nc2c1ncn2C1O[C@H](CO)[C@@H](O)[C@H]1O` (some centres undefined), the Ki at Adenosine receptor A1 was determined as 81.4 nM; on Adenosine receptor A2a, 40.1 nM.

`CCCCCCOc1nc(N)c2ncn(C3O[C@H](CO)[C@@H](O)[C@H]3O)c2n1` (some centres undefined): the inhibition constant (Ki) on Adenosine receptor A1 was 890 nM; on Adenosine receptor A2a, 160 nM.

As to `Nc1nc(OCCc2ccccc2Cl)nc2c1ncn2C1O[C@H](CO)[C@@H](O)[C@H]1O` (some centres undefined), the Ki at Adenosine receptor A1 came to 520 nM; on Adenosine receptor A2a it was 56 nM.

Consider `CC(C)Oc1nc(N)c2ncn(C3O[C@H](CO)[C@@H](O)[C@H]3O)c2n1` (some centres undefined), for which the Ki worked out at 20000 nM on Adenosine receptor A1 and 7400 nM on Adenosine receptor A2a.

Consider `Nc1nc(OCCCCC2CCCCC2)nc2c1ncn2C1O[C@H](CO)[C@@H](O)[C@H]1O` (some centres undefined), for which the Ki at Adenosine receptor A1 amounted to 1100 nM; on Adenosine receptor A2a it was 18 nM.

As for `Nc1nc(OCc2ccccc2)nc2c1ncn2C1O[C@H](CO)[C@@H](O)[C@H]1O` (some centres undefined), the values for the Ki at Adenosine receptor A1 and on Adenosine receptor A2a were 600 nM and 2200 nM, respectively.

`Nc1nc(CO)nc2c1ncn2C1O[C@H](CO)[C@@H](O)[C@H]1O` (some centres undefined): the results for the Ki on Adenosine receptor A1 and at Adenosine receptor A2a were 10.1 nM and 20.5 nM, respectively.

Consider `CCCCCCc1nc(N)c2ncn(C3O[C@H](CO)[C@@H](O)[C@H]3O)c2n1` (some centres undefined), for which the Ki on Adenosine receptor A1 worked out at 202 nM; at Adenosine receptor A2a it was 12.1 nM.

With `CCOCCCc1nc(N)c2ncn(C3O[C@H](CO)[C@@H](O)[C@H]3O)c2n1` (some centres undefined), the Ki amounted to 244 nM at Adenosine receptor A1 and 12.8 nM at Adenosine receptor A2a.

On to `CCNC(=O)[C@H]1OC(n2cnc3c(N)nc(CC4CCC(COC(C)=O)CC4)nc32)[C@H](O)[C@@H]1O` (some centres undefined), for which the figures for the inhibitory constant (Ki) on Adenosine receptor A1 and on Adenosine receptor A2a were 14 nM and 6.2 nM, respectively.

`Nc1nc(OCCc2cccc(Cl)c2)nc2c1ncn2C1O[C@H](CO)[C@@H](O)[C@H]1O` (some centres undefined): the results for the inhibition constant (Ki) on Adenosine receptor A1 and at Adenosine receptor A2a were 250 nM and 76 nM, respectively.

Consider `CC(C)COc1nc(N)c2ncn(C3O[C@H](CO)[C@@H](O)[C@H]3O)c2n1` (some centres undefined), for which the inhibition constant Ki turned out to be 2600 nM on Adenosine receptor A1 and 700 nM on Adenosine receptor A2a.

Consider `CCNC(=O)[C@H]1OC(n2cnc3c(N)nc(C#CNCCc4ccc(CC(=O)O)cc4)nc32)[C@H](O)[C@@H]1O` (some centres undefined), for which the Ki at Adenosine receptor A1 was 4880 nM; on Adenosine receptor A2a, 45 nM.

Turning to `CCNC(=O)[C@H]1OC(n2cnc3c(N)nc(C#CN(C)CCc4ccccc4)nc32)[C@H](O)[C@@H]1O` (some centres undefined), the Ki on Adenosine receptor A1 amounted to 12100 nM; on Adenosine receptor A2a it was 71 nM.

For `CCNC(=O)[C@H]1OC(n2cnc3c(N)nc(CC4CCC(C(=O)OC)CC4)nc32)[C@H](O)[C@@H]1O` (some centres undefined), the results for the Ki on Adenosine receptor A1 and at Adenosine receptor A2a were 28.1 nM and 4.5 nM, respectively.

In the case of `Cc1ccccc1CCOc1nc(N)c2ncn(C3O[C@H](CO)[C@@H](O)[C@H]3O)c2n1` (some centres undefined), the Ki at Adenosine receptor A1 stood at 450 nM; at Adenosine receptor A2a, 39 nM.

As for `CCNC(=O)[C@H]1OC(n2cnc3c(N)nc(C#CNCCc4ccc(CC(=O)OC)cc4)nc32)[C@H](O)[C@@H]1O` (some centres undefined), the Ki at Adenosine receptor A1 is 1260 nM; at Adenosine receptor A2a it was 9 nM.

On to `CCCCOc1nc(N)c2ncn(C3O[C@H](CO)[C@@H](O)[C@H]3O)c2n1` (some centres undefined), for which the results for the Ki at Adenosine receptor A1 and at Adenosine receptor A2a were 2500 nM and 270 nM, respectively.

Take `CCCCc1nc(N)c2ncn(C3O[C@H](CO)[C@@H](O)[C@H]3O)c2n1` (some centres undefined): the Ki on Adenosine receptor A1 amounted to 126 nM; at Adenosine receptor A2a, 2.8 nM.

Take `CCNC(=O)[C@H]1OC(n2cnc3c(N)nc(CC4CCC(CO)CC4)nc32)[C@H](O)[C@@H]1O` (some centres undefined): the Ki at Adenosine receptor A1 came to 0.84 nM; at Adenosine receptor A2a it was 0.48 nM.

Take `Nc1nc(OCCO)nc2c1ncn2C1O[C@H](CO)[C@@H](O)[C@H]1O` (some centres undefined): the Ki on Adenosine receptor A1 was determined as 72 nM; on Adenosine receptor A2a, 690 nM.

Take `CCNC(=O)[C@H]1OC(n2cnc3c(N)nc(C#CNCCc4ccc(F)cc4)nc32)[C@H](O)[C@@H]1O` (some centres undefined): the inhibition constant Ki on Adenosine receptor A1 stood at 1180 nM; at Adenosine receptor A2a, 7.7 nM.

For the compound `CCCCCOc1nc(N)c2ncn(C3O[C@H](CO)[C@@H](O)[C@H]3O)c2n1` (some centres undefined), the Ki on Adenosine receptor A1 was found to be 460 nM; on Adenosine receptor A2a, 150 nM.

Consider `Nc1nc(Oc2ccccc2)nc2c1ncn2C1O[C@H](CO)[C@@H](O)[C@H]1O` (some centres undefined), for which the Ki was found to be 3500 nM on Adenosine receptor A1 and 5700 nM on Adenosine receptor A2a.

Consider `CC[C@H](COc1nc(N)c2ncn(C3O[C@H](CO)[C@@H](O)[C@H]3O)c2n1)c1ccccc1` (some centres undefined), for which the Ki at Adenosine receptor A1 worked out at 2300 nM; on Adenosine receptor A2a, 430 nM.

`CCNC(=O)[C@H]1OC(n2cnc3c(N)nc(CC4CCC(C(=O)O)CC4)nc32)[C@H](O)[C@@H]1O` (some centres undefined): the figures for the Ki on Adenosine receptor A1 and on Adenosine receptor A2a were 292 nM and 20.1 nM, respectively.

Turning to `Nc1nc(OCCc2cccc(F)c2)nc2c1ncn2[C@@H]1O[C@H](CO)[C@@H](O)[C@H]1O` (stereo in doubt; 24), the Ki at Adenosine receptor A1 came to 150 nM; on Adenosine receptor A2a, 58 nM.

In the case of `Nc1nc(OCCc2cccc(F)c2)nc2c1ncn2[C@@H]1O[C@H](CO)[C@@H](O)[C@H]1O` (stereo in doubt; 92), the Ki at Adenosine receptor A1 amounted to 180 nM; at Adenosine receptor A2a, 110 nM.

Consider `Nc1nc(OCCc2ccc(Cl)cc2)nc2c1ncn2[C@@H]1O[C@H](CO)[C@@H](O)[C@H]1O` [SONEDENOSON], for which the Ki on Adenosine receptor A1 came out at 89 nM; at Adenosine receptor A2a, 22 nM.
